Laboratory results reported in patent US20080181875A1, “USE OF CYCLOPHILIN AS ANTIOXIDANT AND PREVENTION OF CYCLOSPORIN A-INDUCED TOXICITY IN CELL TRANSPLANTATION BY OVEREXPRESSION OF CYCLOPHILIN” (priority 2002, published 2008).
Counter-ions that a name gives are not always drawn. One block for each molecule: values may come before it.

What was measured:
Bax [1] = assay: Western blot of apoptosis-accelerating protein Bax; format: cell-based, rat; settings: DM; 1-10 μM CsA, 9 μM FK506, 200 nM ascomycin
Description: The results are shown in the upper part of FIG. 6a. β-actin is used as a loading control.
After being scanned, the Western blot analysis bands were quantified by Bio-Rad imaging densitometer. The results are shown in the lower part of FIG. 6a. In the histograms, the bars express the Bax levels of the samples as mean±standard deviation values of the fold numbers compared to those of the control.

H9c2 myoblasts [2] = assay: Apoptosis by in-situ TUNEL assay and DNA fragmentation analysis; format: cell-based, rat; settings: 72 hours in DM
Experimental: TUNEL analysis was performed using ApopTag Flurescein In situ Apoptosis Detection kit (Intergen, Purchase, N.Y.). The results are given in FIG. 2c where arrows indicate TUNEL positive cells.
Once cells undergo apoptosis, the DNA is digested into fragments diferring by 180-200 bp by endonuclease. […] DNA fragmentation aiming to identify the DNA laddering pattern was performed as follows. […] The cell lysates thus obtained were treated with 50 μg/ml RNase A at 37° C. for 2 hours and then with 500 μg/ml proteinase K at 55° C. for 2 hours. DNA was extracted by a phenol/chloroform method and precipitated in 70% (v/v) isopropanol. After being centrifuged at 15,000 rpm for 15 min, the precipitates were dissolved in a TE buffer (10 mM Tris-HCl (pH 8.0), 1 mM EDTA).

[3] = system: mitochondria membrane potential; assay: Mitochondria membrane potential by DiOC6[3] flow cytometry; format: cell-based; settings: 48 hours in DM; 1-10 μM CsA, 9 μM FK506, 200 nM ascomycin
Experimental: H9c2 myoblasts cultured in PM and in DM in the absence of the drugs were measured for Δψm (control). In the FACS plots of FIG. 6b, the second peaks and the first peaks represent viable cells with high DiOC6[3] contents and dead cells with DiOC6[3]. Numerals mean percentages of the myoblasts with decreased Δψm.

calcineurin = assay: Calcineurin phosphatase activity in H9c2 myoblasts (BioMol Quantizyme assay); settings: for influence on basal calcineurin phosphatase activity / concentration at which maximal inhibitory effect on the increased calcineurin phosphatase activity was observed: H9c2 myoblasts; for inhibition of calcineurin phosphatase activity induced during muscle differentiation: H9c2 myoblasts in DM; for concentration at which maximal inhibitory effect on the increased calcineurin phosphatase activity was observed: activity induced by DM (2 days) and PE (12 h)
[4] = system: H9c2 rat cardiac myoblasts; assay: Morphological observation of muscle differentiation of myoblasts in DM; format: cell-based; settings: 72 hours in DM
Experimental: As a control, myoblasts were cultured in the absence of the drugs. Before use, the myoblasts were cultured to a cell confluency of about 70%.

myogenin and MRF4 = assay: Western blot of myogenic markers myogenin and MRF4; format: cell-based, rat
Experimental: In addition, the protein expression levels of the myogenin and MRF4, early and late myogenic markers, were determined by Western blot analysis. To this end, myoblast extracts treated with the drugs were separated on SDS-PAGE and transferred onto a nitrocellulose membrane which was then blocked and reacted with predetermined primary antibodies (polyclonal myogenic antibody and polyclonal MRF4 antibody (Santa Cruz, Calif., USA) and then with a secondary antibody (anti-rabbit IgG-HRP conjugate with a chemiluminescent reactive enzyme able to detect the primary antibodies) (Santa Cruz, Calif., USA). Finally, the specimens were detected by enhanced ECL-plus chemiluminescence (Amersham Pharmacia Biotech, Piscataway, N.J., USA). Non-myogenic β-actin protein was used as a loading control.

H9c2 cardiac myoblasts = assay: Cell cycle and apoptosis (sub-G0/G1) by propidium iodide FACS; format: cell-based, rat; settings: DM 72 h
Description: Using 20,000 cells obtained from each of the cultures, measurements were made of percentages of cells in each phase of the cell cycle (G0/G1, S and G2/M) and percentages of cells in sub-G0/G1 aliquots (that is, apoptotic cells).

transplanted myoblasts = settings: cited from earlier work
ROS [5] = assay: Cellular ROS level by DCF flow cytometry (FACS); format: cell-based, rat; settings: 10 μM, 24 hours in DM
Experimental: H9c2 myoblasts were cultured for 24 hours in PM and in DM, and then in the presence of 10 μM DCF (2′,7′-dichlorofluorescein). After being harvested, the cells were washed once with PBS and resuspended in […] of PBS. The cellular levels of ROS generated were measured by flow cytometry (FACS), there values were regarded as controls. […] ROS levels were analyzed by FACS. […] ROS levels were measure as the above. The results are given in FIG. 5a where numerals indicate mean±standard deviation values of the ROS levels in the cells.

H9c2 myoblasts [6] = assay: Effect of antioxidants on muscle differentiation (morphology); format: cell-based, rat; settings: 5 days in DM; 0.4 mM DFOM, 2000 units/ml catalase, 10 mM Tiron
Experimental: H9c2 myoblasts were cultured for 5 days in DM containing 0.4 mM of DFOM, 2000 units/ml of catalase, 10 mM of Tiron (4,5-dihydroxy-1,3-benzene-disulfonic acid) to induce differentiation, during which morphological changes were observed. The control is the myoblasts which were induced to differentiate in the absence of […].

ROS [7] = assay: ROS content of CypA-transfected cells in DM with or without CsA (DCF FACS); format: cell-based, rat; settings: DM containing no CsA or 10 μM CsA
Experimental: These transfected cells were grown at 37° C. in the presence of 10 μM DCF, washed with PBS, resuspended in […] of PBS, and measured for ROS content by FACS analysis.

Bax [8] = assay: Bax expression in CypA-transfected cells exposed to CsA or H2O2 (Western blot); format: cell-based, rat; settings: exposed to CsA; similar results with H2O2
Description: In the histograms of FIG. 7f, bars express the Bax levels in the samples as percentages compared to the mock-transfected cells.

H9c2 myoblasts [9] = assay: Survival and morphology of CypA-transfected cells exposed to CsA or H2O2; format: cell-based, rat; settings: 10 μM CsA 72 h in DM; for protection from CsA- or H2O2-induced apoptotic cell death: 300 μM H2O2 12 h in DMEM/F-12
Experimental: Separately, the cells were exposed to 300 μM H2O2 for 12 hours in DMEM/F-12. […] Here, % cell survival is obtained by dividing […].

H9c2 myoblasts [10] = assay: Muscle differentiation of CypA-transfected cells in DM (morphology, time required); format: cell-based, rat; settings: for time required for muscle differentiation: transfected H9c2 cells in DM, mock control 4-5 days; for muscle differentiation in DM: transfected H9c2 cells, no CsA
Experimental: To determine the role of CypA, that is, PPIase, in muscle differentiation, time periods required for the complete differentiation of the three CypA gene-transfected cells, CypA/wt, CypA/W121F and CypA/R55A were measured while they were cultured in DM. In addition, their morphological changes were observed when they were completely differentiated.

PPIase activity = settings: cited from earlier work

mitochondria membrane potential (Δψm) [3]: not observed | influence on basal calcineurin phosphatase activity (calcineurin): no influence | inhibition of calcineurin phosphatase activity induced during muscle differentiation (calcineurin): completely inhibit | concentration at which maximal inhibitory effect on the increased calcineurin phosphatase activity was observed (calcineurin): 20 nM | morphological changes during muscle differentiation [4]: no morphological differences
Molecule: CC[C@@H]1/C=C(\C)C[C@H](C)C[C@H](OC)[C@H]2O[C@@](O)(C(=O)C(=O)N3CCCC[C@H]3C(=O)O[C@H](/C(C)=C/[C@@H]3CC[C@@H](O)[C@H](OC)C3)[C@H](C)[C@@H](O)CC1=O)[C@H](C)C[C@@H]2OC [ascomycin]
Bax expression (Bax [1]): do not affect | apoptosis (TUNEL, DNA laddering) (H9c2 myoblasts [2]): not related to apoptosis | myogenin and MRF4 protein expression (myogenin and MRF4; FK506, ascomycin in DM): no influence | % Apoptosis (sub-G0/G1 fraction) (H9c2 cardiac myoblasts; Ascomycin 200 nM): 10 ± 3% | % G0/G1 (H9c2 cardiac myoblasts; Ascomycin 200 nM): 85 ± 3% | % G2/M (H9c2 cardiac myoblasts; Ascomycin 200 nM): 4 ± 1% | % S (H9c2 cardiac myoblasts; Ascomycin 200 nM): 2 ± 1%

mitochondria membrane potential (Δψm) [3]: not observed | influence on basal calcineurin phosphatase activity (calcineurin): no influence | inhibition of calcineurin phosphatase activity induced during muscle differentiation (calcineurin): completely inhibit | morphological changes during muscle differentiation [4]: no morphological differences
Molecule: C=CC[C@@H]1/C=C(\C)C[C@H](C)C[C@H](OC)[C@H]2O[C@@](O)(C(=O)C(=O)N3CCCC[C@H]3C(=O)O[C@H](/C(C)=C/[C@@H]3CC[C@@H](O)[C@H](OC)C3)[C@H](C)[C@@H](O)CC1=O)[C@H](C)C[C@@H]2OC [FK506, tacrolimus]
Bax expression (Bax [1]): do not affect | apoptosis (TUNEL, DNA laddering) (H9c2 myoblasts [2]): not related to apoptosis | concentration at which maximal inhibitory effect on the increased calcineurin phosphatase activity was observed (calcineurin): 1000 nM | success rate of myoblast transplantation (transplanted myoblasts; clinical trials and animal model studies): ≥ 95% | myogenin and MRF4 protein expression (myogenin and MRF4; FK506, ascomycin in DM): no influence | % Apoptosis (sub-G0/G1 fraction) (H9c2 cardiac myoblasts; FK506 9 μM): 11 ± 3% | % G0/G1 (H9c2 cardiac myoblasts; FK506 9 μM): 83 ± 5% | % G2/M (H9c2 cardiac myoblasts; FK506 9 μM): 4 ± 1% | % S (H9c2 cardiac myoblasts; FK506 9 μM): 4 ± 1%

Molecule: C/C=C/C[C@@H](C)[C@@H](O)[C@H]1C(=O)N[C@@H](CC)C(=O)N(C)CC(=O)N(C)[C@@H]([C@@H](C)CC)C(=O)N[C@@H](C(C)C)C(=O)N(C)[C@@H](CC(C)C)C(=O)N[C@@H](C)C(=O)N[C@H](C)C(=O)N(C)[C@@H](CC(C)C)C(=O)N(C)[C@@H](CC(C)C)C(=O)N(C)[C@@H](C(C)C)C(=O)N1C [SDZ NIM811]
apoptosis (TUNEL, DNA laddering) (H9c2 myoblasts [2]): dose dependent | morphological changes during muscle differentiation [4]: blocks the myoblast differentiation | myogenin and MRF4 protein expression (myogenin and MRF4; 1 μM, DM): partial suppression | myogenin and MRF4 protein expression (myogenin and MRF4; concentrations higher than 1 μM, DM): complete suppression | ROS level (mean±standard deviation) (ROS [5]): 634±20

Molecule: O=S(=O)(O)c1cc(O)c(O)c(S(=O)(=O)O)c1 [Tiron, 4,5-dihydroxy-1,3-benzene-disulfonic acid]
effect on muscle differentiation (H9c2 myoblasts [6]): blocking activity

Molecule: CypA/wt: wild type rat brain CypA gene transfected into and overexpressed in H9c2 rat cardiac myoblasts
ROS level (ROS [7]): reduced the ROS level | Bax expression (Bax [8]): inhibited Bax expression | protection from differentiation blockage (H9c2 myoblasts [9]): not from differentiation blockage | protection from CsA- or H2O2-induced apoptotic cell death (H9c2 myoblasts [9]): protect cells | time required for muscle differentiation (H9c2 myoblasts [10]): 8 to 9 days | muscle differentiation in DM (H9c2 myoblasts [10]): undergo muscle differentiation

Molecule: CypA/R55A: mutated rat CypA with alanine instead of arginine at position 55, transfected into H9c2 myoblasts
PPIase activity compared to the wild type protein (PPIase activity): one thousandth | ROS level (ROS [7]): significantly increased ROS generation | Bax expression (Bax [8]): increased Bax expression | protection from CsA- or H2O2-induced apoptotic cell death (H9c2 myoblasts [9]): increases ROS-induced apoptosis | muscle differentiation in DM (H9c2 myoblasts [10]): no traces of differentiation

Molecule: CypA/W121F: mutated rat CypA with phenylalanine instead of tryptophan at position 121, transfected into H9c2 myoblasts
PPIase activity compared to the wild type protein (PPIase activity): half | ROS level (ROS [7]): removed a greater amount of ROS than did CypA/wt | Bax expression (Bax [8]): inhibited Bax expression | protection from differentiation blockage (H9c2 myoblasts [9]): not from differentiation blockage | protection from CsA- or H2O2-induced apoptotic cell death (H9c2 myoblasts [9]): protect cells | time required for muscle differentiation (H9c2 myoblasts [10]): 14 to 15 days | muscle differentiation in DM (H9c2 myoblasts [10]): undergo muscle differentiation

Molecule: CC(=O)N(O)CCCCCNC(=O)CCC(=O)N(O)CCCCCNC(=O)CCC(=O)N(O)CCCCCN [DFOM, deferoxamine mesylate]
effect on muscle differentiation (H9c2 myoblasts [6]): blocking activity

Molecule: O=P1(N(CCCl)CCCl)NCCCO1 (stereo not shown) [cyclophosphamide]
success of allogenic myoblast transplantation (transplanted myoblasts; in vivo): did not increase the survival

B1: catalase: antioxidant enzyme purchased from Sigma (protein, UniProt P00432 2-527, looked up)
Catalase: ADNRDPASDQMKHWKEQRAAQKPDVLTTGGGNPVGDKLNSLTVGPRGPLLVQDVVFTDEMAHFDRERIPERVVHAKGAGAFGYFEVTHDITRYSKAKVFEHIGKRTPIAVRFSTVAGESGSADTVRDPRGFAVKFYTEDGNWDLVGNNTPIFFIRDALLFPSFIHSQKRNPQTHLKDPDMVWDFWSLRPESLHQVSFLFSDRGIPDGHRHMNGYGSHTFKLVNANGEAVYCKFHYKTDQGIKNLSVEDAARLAHEDPDYGLRDLFNAIATGNYPSWTLYIQVMTFSEAEIFPFNPFDLTKVWPHGDYPLIPVGKLVLNRNPVNYFAEVEQLAFDPSNMPPGIEPSPDKMLQGRLFAYPDTHRHRLGPNYLQIPVNCPYRARVANYQRDGPMCMMDNQGGAPNYYPNSFSAPEHQPSALEHRTHFSGDVQRFNSANDDNVTQVRTFYLKVLNEEQRKRLCENIAGHLKDAQLFIQKKAVKNFSDVHPEYGSRIQALLDKYNEEKPKNAVHTYVQHGSHLSAREKANL
effect on muscle differentiation (H9c2 myoblasts [6]): blocking activity
